According to US9868784B2, “Antibodies against the S100P protein for the treatment and diagnosis of cancer” (LYKERA BIOMED SA, priority 2011, dated 2018):
Where “and” joins values, the source holds several entries; their conditions need not be identical. Identical values can stand only once.

Legend:
[1] = system: human pancreatic BxPC3 tumors; experiment: Orthotopic BxPC3-luc pancreatic tumor model, tumor progression and metastases (TMPN score, bioluminescence); assay type: in vivo, nude mice; set-up: key to Nodes score / Tumor score / Organ Metastases, Liver score / Organ Metastases, Lung score / Peritoneal Metastases, Diaphragm score / Peritoneal Metastases, Kidney score / Peritoneal Metastases, Adrenals score / Peritoneal Metastases, Intestine score / Peritoneal Metastases, Peritoneum score: TMPN category scores per Table 2 (modified Hennig 2005); key to Total Score: product of T, M, P and N scores per animal; conditions: individual animal, end of experiment
Procedure: The antitumorigenic and antimetastatic capability of the monoclonal antibodies 3F8 and 2H8 against S100P was assessed in an orthotopic tumor model using the human adenopancreatic BxPC3 tumor cell line stably expressing a lentiviral luciferase reporter gene.
BxPC3-luc cell line in exponential growth were harvested with trypsin-EDTA (0.05%/0.02%) (Invitrogen), washed, and examined for viability by trypan blue dye exclusion. Viability was greater than 95%. For primary tumor growth, cells (5×105 in 0.1 mL DMEM high glucose) were injected into the pancreas of 5 nude mice.
Four weeks after cell injection, when tumors became established (300-350 mm3), two animals were killed, tumors were obtained, sliced in 5 mm3 pieces approximately and implanted in 15 new mice. Mice were divided into 3 groups of five animals each one.
Tumor growth and metastasis were followed by bioluminescent imaging, palpation of animals and the examination of endpoint criteria of treated animals (occurrence of ascitic fluid and body weight loss).
Mice were treated either with cromolyn (reference compound that is known to bind to S100P and block its extracellular activity, Arumugam T. et al. 2006. J. Natl. Cancer Inst. 98(24):1806-18), daily (5 mg/Kg body weight by ip injection) or with our antibodies against S100P (3F8 and 2H8), three times per week at 25 mg/Kg by ip injection, starting the treatment 24 hours after tumor implantation. At the end of the experiment (treatment of 30 days) animals were killed, pancreatic tumors were surgically removed, weighted and an staging and scoring system of peritoneal tumors, pancreatic tumors, lymph node metastases, organ metastases, and ascites was developed and recorded according to our TMPN scoring system (Table 2) modified from Hennig R. et al. 2005. Neoplasia, 7(4):417-425 to evaluate tumor progression. Scores from each category were multiplied with each other because patterns in medicine follow multiplicative, rather than additive, rules.
Scores for the primary tumor (T), organ metastases (M), peritoneal metastases (P), and lymph node metastases (N) were multiplied to calculate the total tumor score for each animal. Score P4 value is the sum of the corresponding P0, P1, P2, P3 (P0/1/2/3) plus an additional value of 3 for metastasis presence in the diaphragm, 3 for kidney, 3 for intestine and 3 for adrenal glands.
Bioluminescence imaging was conducted using a cryogenically cooled IVIS 100 imaging system coupled to a data acquisition computer running Living Image Software (Xenogen Corp). Before imaging, mice were placed in an acrylic chamber anesthetized with 2.5% isofluorane-air mixture, and injected intraperitoneally with 15 mg/mL of luciferin potassium salt in PBS at a dose of 150 mg/Kg body weight. At the end of experiment, after the primary tumors were removed, cancer cell dissemination and metastasis were visualized using IVIS imaging, and metastatic colonies were counted and measured (photons/second).
Comparisons between groups were made using the Kruskall-Wallis ANOVA on ranks as a nonparametric test. Differences for which P value was less than 0.05 were considered statistically significant.

[2] = system: HT1080 human fibrosarcoma cell line; experiment: HT1080 cell survival by MTT method
Procedure: Briefly, HT1080 cells (1×10^4 cells/well) were plated onto 96-well cell culture plates in 50 μl of DMEM medium. Twenty-for hours later, 50 μl of medium with doxorubicin (240 nM or 1 μM) alone or in combination with either S100P or S100P combined with the antibodies (see FIG. 6) were added to each well and were cultured for 72 hours. Then 10 μl of a MTT solution (5 mg/ml PBS) was added to each well and after 4 hours cells were lysed, formazan product was solubilised with 100 μl of extraction buffer (15% SDS in 50% N,N-dimethylformamide pH 4.7) and colorimetric result was measured at 570 nm using a multi-well scanning spectrophotometer 5 hours after solubilization.

[3] = system: BxPC3 pancreatic adenocarcinoma tumor cells; experiment: Proliferation of BxPC3 tumor cells induced by S100P; assay type: cell-based, human; conditions: S100P 100 nM, 48 hours
Procedure: The proliferation studies on the BxPC3 line were analyzed using the Cell Proliferation ELISA Biotrak™ System kit (GE Healthcare) following the manufacturer's instructions with some modifications. Three thousand cells were seeded in 50 μl of RPMI 1640 culture medium supplemented with 3% FCS in each well. The recombinant S100P protein (100 nM) alone or in combination with the antibodies was added to the cells in the same seeding medium to test the proliferative or inhibitory capacity thereof, respectively. To test the inhibitory effect of the 5D7, 4B12, 3E3, 7F1, 9F3, 6F1, 1A5, 3F8 and 2H8 monoclonal antibodies, a concentration of 500 nM of each antibody was incubated for 2 hours at 37° C. with the recombinant S100P protein before being added to the culture. After 48 hours at 37° C., the proliferation was determined. The two-tailed Mann-Whitney nonparametric test was used to compare the groups. A p value <0.05 was taken for the values to be statistically significant.

## O=C(O)c1cc(=O)c2c(OCC(O)COc3cccc4oc(C(=O)O)cc(=O)c34)cccc2o1 [Cromolyn, cromolyn]
[1]; T x M x P x N scores multiplied
  Total Score: 2600 and 1000 (2×) and 1300 and 1750 (2×)
[1]; TMPN score (Table 2), 30 days treatment, antibodies 25 mg/Kg ip three times per week, cromolyn 5 mg/Kg ip daily
  Tumor score: 4 (4×) and 5 (2×)
[1]; TMPN score
  Nodes score: 5
  Organ Metastases, Liver score: 5
  Organ Metastases, Lung score: 5 and 0 (5×)
  Peritoneal Metastases, Adrenals score: 3 and 0 (5×)
  Peritoneal Metastases, Diaphragm score: 0 and 3 (5×)
  Peritoneal Metastases, Intestine score: 3
  Peritoneal Metastases, Kidney score: 3 (4×) and 0 (2×)
  Peritoneal Metastases, Peritoneum score: 4 (4×) and 5 (2×)

## COc1cccc2c1C(=O)c1c(O)c3c(c(O)c1C2=O)C[C@@](O)(C(=O)CO)C[C@@H]3O[C@H]1C[C@H](N)[C@H](O)[C@H](C)O1 [Doxorubicin, doxorubicin]
[2]; Homo sapiens, HT-1080, 72 h
  IC50: 240 nM
[2]; Homo sapiens, HT-1080, read-out: Toxicity EC50
  EC50: 240 nM

B1: S100P: human recombinant S100P protein (SEQ ID NO: 2) expressed in E. coli, used as stimulus (protein)
chain: GSHMTELETAMGMIIDVFSRYSGSEGSTQTLTKGELKVLMEKELPGFLQSGKDKDAVDKLLKDLDANGDAQVDFSEFIVFVAAITSACHKYFEKAGLK
modifications: Human
[2]; S100P 500 nM, doxorubicin 240 nM, 72 h
  increase of growing respect to the non treated HT1080 cells: approximately 40%
[3]
  proliferation increase compared to cells not treated with S100P: ~80%
